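Grown in 96-well plates, cells were treated for 48 hours with each compound at five concentrations. Insufficient inhibition: endpoint recorded as highest concentration tested. At the TGI there is no net growth.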
Assays:
Experiment in all cases: NCI tumour cell line growth inhibition, 48 h
[1] = system: HOP-92 NSCLC
[2] = system: EKVX NSCLC
[3] = system: A549 NSCLC
[4] = system: MDA-MB-231 breast
[5] = system: MCF7 breast
[6] = system: SNB-19 CNS
[7] = system: MDA-N
[8] = system: SN12C renal
[9] = system: NCI-H226 lung
[10] = system: SK-MEL-28 melanoma
[11] = system: HCT-15 colon

| SMILES | TGI [1] [µM] | TGI [2] [µM] | TGI [3] [µM] | TGI [4] [µM] | TGI [5] [µM] | TGI [6] [µM] | TGI [7] [µM] | TGI [8] [µM] | TGI [9] [µM] | TGI [10] [µM] | TGI [11] [µM] |
| --- | --- | --- | --- | --- | --- | --- | --- | --- | --- | --- | --- |
| CN(C)CC1CN(C(=O)Nc2ccccc2)C(=N)O1 (stereo unspecified) | > 100 | > 100 | > 100 | > 100 | > 100 | > 100 | > 100 | > 100 | > 100 | > 100 | > 100 |
| Cc1c(C)c(C)c(CSC(=N)N)c(C)c1C | 30.9 | 28 | 30.9 | 27.1 | 30.9 | 27.9 | 40.3 | 32.3 | 27.8 | 28.8 | 31.3 |
| O=C1/C(=C/c2ccc(O)cc2)CCc2ccccc21 | 91.1 | 58.3 | 64.1 | 43.4 | 82.4 | 50.7 | 57.7 | 38.1 | 57.8 | 37 | 40.4 |
| CN(C)C(=S)SCc1ccccc1 | > 100 | > 100 | > 100 | > 100 | > 100 | > 100 | > 100 | > 100 | > 100 | > 100 | > 100 |
| COc1cc(C2c3cc4c(cc3OC(O)C2C)OCO4)cc(OC)c1O (stereo unspecified) | > 94.3 | > 81.9 | > 100 | 89.3 | > 100 | > 46.4 | 5.06 | > 75.3 | 64.3 | > 91.6 | > 57.4 |
| O=C1c2cccnc2-c2nccc3ccnc1c23 | 2.36 | 3.75 | 6.82 | 6.52 | 1.7 | 10.9 | 0.465 | 2.36 | 2.98 | 2.58 | 1.8 |
| CO[C@H]1C[C@H](O[C@H]2CC[C@]3(C=O)[C@H]4CC[C@]5(C)[C@@H](C6=CC(=O)OC6)CC[C@]5(O)[C@@H]4CC[C@]3(O)C2)O[C@H](C)[C@H]1O[C@@H]1O[C@H](CO[C@@H]2O[C@H](CO)[C@@H](O)[C@H](O)[C@H]2O)[C@@H](O)[C@H](O)[C@H]1O | 0.367 | 0.0631 | 0.0254 | 2.1 | 0.677 | 0.83 | 0.286 | 0.11 | 0.32 | 1.15 | 0.144 |
| CC1=C/C(=C(/c2ccc(O)c(C)c2)c2ccccc2C(=O)O)C=CC1=O | 34.8 | 36 | 35.3 | 40.4 | 34.5 | 32.2 | 33.2 | 36.7 | 44.5 | 40 | 42.7 |
| Nc1nc(Cl)cc(NCC2(CO)CC(Cc3ccccc3)C2)n1 (stereo unspecified) | > 88.6 | > 95.1 | > 100 | > 100 | > 77.7 | > 100 | > 86.9 | > 100 | > 91.1 | > 100 | > 100 |
| Cc1c(C)c2ccc(O)cc2[nH]c1=O | > 100 | > 100 | > 100 | > 100 | > 100 | > 100 | > 100 | > 100 | > 100 | > 100 | > 100 |
| c1ccc(-c2cc(-c3cc(-c4ccccc4)no3)on2)cc1 | > 100 | > 100 | > 100 | 74.8 | > 100 | > 100 | > 100 | > 100 | > 100 | > 100 | > 100 |
| N=C(N)c1ccc(-c2ccc(-c3ccc(C(=N)N)cc3)o2)cc1 | > 100 | 91.6 | > 100 | > 100 | > 100 | > 100 | > 100 | 57.3 | > 100 | 71.7 | > 100 |
| CCNC(=O)Cc1nc2c(=O)[nH]cnc2n1C1OC(CO)C(O)C1O (stereo unspecified) | > 100 | > 100 | > 100 | > 100 | > 100 | > 100 | > 100 | > 100 | > 100 | > 100 | > 100 |
| CCOC(=O)C1C(=O)CC(C)(O)C(C(=O)OCC)C1c1ccc(OC)cc1 (stereo unspecified) | > 100 | > 100 | > 100 | > 100 | > 100 | > 100 | > 100 | > 100 | > 100 | > 100 | > 100 |
| C(=N/Nc1ccccn1)/c1cccnc1 | > 100 | > 100 | > 100 | > 100 | > 100 | > 100 | > 100 | > 100 | > 100 | > 100 | > 100 |
| CC(C)[C@H](NC(=O)[C@@H](O)[C@H](N)Cc1ccccc1)C(=O)N[C@@H](Cc1ccccc1)C(=O)O | > 100 | > 100 | > 100 | > 100 | > 100 | > 100 | > 100 | > 100 | > 100 | > 100 | > 100 |

| SMILES | TGI [1] [µM] | TGI [2] [µM] | TGI [3] [µM] | TGI [4] [µM] | TGI [5] [µM] | TGI [6] [µM] | TGI [7] [µM] | TGI [8] [µM] | TGI [9] [µM] | TGI [10] [µM] | TGI [11] [µM] |
| --- | --- | --- | --- | --- | --- | --- | --- | --- | --- | --- | --- |
| C=C1C(=O)O[C@H]2[C@H]3O[C@@H](C[C@@H]12)[C@](C)(O)CCCC(C)=CCC[C@H]3C | 8.45 | 22.4 | 33.6 | 35.8 | 29.8 | 32.4 | 75.8 | 71.4 | 36.9 | 25.9 | 84.9 |
| Nc1nc(Cl)cc(NCC2(CO)CCC(OCc3ccccc3)C2)n1 (stereo unspecified) | 37 | 59.4 | > 100 | 42.8 | 89.1 | > 100 | 74.6 | 93 | 84.1 | > 100 | > 100 |
| CCOC(=O)C(SCCO)C(C(=O)OCC)n1cc(C)c(=O)[nH]c1=O (stereo unspecified) | 71.9 | > 100 | > 100 | 48.9 | 43.5 | > 100 | 64.4 | > 45.8 | > 61.4 | > 65.6 | 25.7 |
| CC(C)(Cc1ccccc1)Cc1cc(O)ccc1O | 36.5 | 65.8 | > 100 | 39.2 | 86.5 | 48.7 | 56.6 | 41.3 | 97.8 | 47.2 | 39.8 |
| CC[C@]12C=CCN3CCC4(c5cc(N=Nc6ccc([N+](=O)[O-])cc6)c(OC)cc5N(C)[C@H]4[C@@](O)(C(=O)OC)[C@@H]1OC(C)=O)[C@@H]32 (stereo partly specified) | 8.62 | 56.9 | > 100 | 35.9 | > 100 | > 100 | 38.6 | 59.8 | 56.5 | > 100 | 57.8 |
| CCC1CCN=C(Cn2cc(C)c(=O)[nH]c2=O)N1 (stereo unspecified) | > 100 | > 100 | > 100 | > 100 | > 100 | > 100 | > 100 | > 100 | > 100 | > 100 | > 100 |
| CCC(CCCCC1CC[C@H]2CC(=O)C[C@@H]12)OC (stereo partly specified) | > 100 | > 100 | > 100 | > 100 | > 100 | > 100 | > 100 | > 100 | > 100 | > 100 | > 100 |
| CN(CCNC(=O)c1cc(-c2ccccc2)nc2ccccc12)CCNC(=O)c1cc(-c2ccccc2)nc2ccccc12 | 14.7 | > 87.8 | > 100 | > 100 | 42 | > 100 | 32.2 | > 100 | 55.5 | 5.29 | > 100 |
| C/C(=C\[C@H]1C[C@@H]([C@@H]2CC[C@]34C[C@]23C=C[C@@H]2[C@@]3(C)CC=C5C[C@@H](c6ccccc6)OC[C@]5(C)[C@@H]3C[C@@H](O)[C@]24C)C(=O)O1)CO | 28.1 | > 52 | > 100 | 54.4 | > 100 | > 86.7 | 13.2 | 5.57 | > 94.2 | > 100 | 25.3 |
| O=c1[nH][nH]c(=S)c(=O)[nH]1 | > 100 | > 100 | > 100 | > 100 | > 100 | > 100 | > 100 | > 100 | > 100 | > 100 | > 100 |
| O=C1C(c2c(O)[nH]c3ccc(S(=O)(=O)N(CCO)CCO)cc23)=Nc2ccccc21 | > 100 | > 100 | > 100 | > 100 | > 100 | > 100 | > 100 | > 100 | > 100 | > 100 | > 100 |
| Clc1ccc(CSCc2ccc(Cl)cc2Cl)c(Cl)c1 | > 100 | > 100 | > 100 | > 100 | 86.9 | > 100 | > 100 | > 100 | > 100 | > 100 | > 100 |
| Cc1ccc(S(=O)(=O)N/N=C2/CC[C@H](C(C)(C)C)C[C@@H]2C)cc1 | 33.4 | 32.2 | 33.4 | 43.7 | 32.8 | 32.6 | 34.3 | 30.4 | 28.3 | 32.8 | 32.7 |
| CC1(c2nc3cc(Cl)c(Cl)cc3[nH]2)CCC(C(=O)O)C(C)(C)O1 (stereo unspecified) | > 100 | > 100 | > 100 | > 100 | > 100 | > 100 | > 100 | > 100 | > 100 | > 100 | > 100 |
| Cc1ccc2nc(Cl)c(/C=N/N3C(=O)/C(=C/Cc4ccco4)N=C3c3ccccc3)cc2c1 | 66.5 | 98.7 | > 93.5 | > 100 | > 93.9 | > 90.9 | 39.6 | > 69.6 | > 100 | > 100 | > 97.1 |

— PubChem BioAssay (NCI)
